Experimental data reported in a compilation of properties of binary mixtures (doi:10.1021/acs.jced.3c00537).

Experiment: xn = mol fraction of the nth substance listed
Settings: 100 kPa

CC[n+]1ccn(C)c1.COP(=O)([O-])OC + CCO
viscosity [mPa·s]
Settings	293.15 K	298.15 K	303.15 K	308.15 K	313.15 K	318.15 K	323.15 K	328.15 K	333.15 K	338.15 K
x1 = 0.1004	3.47	3.1	2.77	2.5	2.28	2.09	1.95	1.85	–	1.55
x1 = 0.2032	7.38	6.54	5.8	5.17	4.66	4.26	3.94	3.61	3.26	3.07
x1 = 0.3007	14.45	12.4	–	9.4	–	–	6.75	6.22	5.73	5.32
x1 = 0.3994	26.4	22.01	18.49	15.67	13.43	11.74	10.36	9.26	8.31	7.61
x1 = 0.5013	46.78	–	30.72	25.48	21.4	18.27	–	13.67	11.97	10.68
x1 = 0.5994	79.2	61.56	–	38.81	–	26.33	22.2	19.04	16.4	14.35
x1 = 0.7006	–	–	72.82	57.48	45.56	36.84	30.39	–	–	18.37
x1 = 0.8011	176.7	–	106.5	80.4	62.91	48.34	–	31.5	26.15	21.94
x1 = 0.8988	241	192.2	140.5	106.5	78.6	62.43	49.31	39.47	32.04	–
x1 = 1	348	247	178.9	–	–	79.1	62.91	50.39	–	33.59

COP(=O)([O-])OC.Cn1cc[n+](C)c1 + CCO
viscosity [mPa·s]
Settings	293.15 K	298.15 K	303.15 K	308.15 K	313.15 K	318.15 K	323.15 K	328.15 K	333.15 K	338.15 K
x1 = 0.1005	–	2.91	–	2.38	2.15	1.9	1.74	1.54	–	1.22
x1 = 0.2006	6.54	5.92	–	4.71	4.29	3.89	3.5	3.19	2.93	2.67
x1 = 0.3005	13.17	11.4	–	8.77	7.8	–	–	5.87	–	5.14
x1 = 0.4031	24.71	20.72	17.29	14.75	–	11.17	9.96	8.98	8.12	7.43
x1 = 0.4996	42.18	33.84	27.62	22.9	19.31	16.65	14.39	–	11.07	–
x1 = 0.6043	70.07	54.83	43.41	35.07	28.85	24.13	20.39	17.54	15.17	13.3
x1 = 0.7009	111.3	–	64.5	50.89	40.71	–	–	22.99	–	16.89
x1 = 0.797	–	118.8	89.5	69.03	–	43.34	–	–	24.3	20.61
x1 = 0.8995	235.4	–	125.2	–	72.72	58.89	–	36.94	–	25.28
x1 = 1	331	232.5	165.8	–	93.5	–	57.09	45.49	36.7	30.05

CCO + CC[n+]1ccn(C)c1.COP(=O)([O-])OC
x2 = 0
Settings	viscosity [mPa·s]
293.15 K	1.18
303.15 K	0.976
308.15 K	0.89
313.15 K	0.815
318.15 K	0.75
323.15 K	0.694
333.15 K	0.603
338.15 K	0.564

CCO + COP(=O)([O-])OC.Cn1cc[n+](C)c1
x2 = 0
Settings	viscosity [mPa·s]
293.15 K	1.18
303.15 K	0.976
313.15 K	0.815
318.15 K	0.75
323.15 K	0.694
333.15 K	0.603
338.15 K	0.564
